Test results published in patent publication US20230295119A1, “SUBSTITUTED PYRIDINES FOR THE TREATMENT OF INFLAMMATORY DISEASES” (GOSSAMER BIO SERVICES, INC., priority 2020, published 2023).

Tests used:
human JAK2 = human JAK2 (Homo sapiens (Human), UniProt O60674); assay: JAK2 TR-FRET kinase assay; format: biochemical; conditions: JAK2 0.025 nM
human JAK1 = human JAK1 (Homo sapiens (Human), UniProt P23458); assay: JAK1 TR-FRET kinase assay; format: biochemical; conditions: TR-FRET, JAK1 2.5 nM
Sequence of human JAK1 (P23458 whole entry): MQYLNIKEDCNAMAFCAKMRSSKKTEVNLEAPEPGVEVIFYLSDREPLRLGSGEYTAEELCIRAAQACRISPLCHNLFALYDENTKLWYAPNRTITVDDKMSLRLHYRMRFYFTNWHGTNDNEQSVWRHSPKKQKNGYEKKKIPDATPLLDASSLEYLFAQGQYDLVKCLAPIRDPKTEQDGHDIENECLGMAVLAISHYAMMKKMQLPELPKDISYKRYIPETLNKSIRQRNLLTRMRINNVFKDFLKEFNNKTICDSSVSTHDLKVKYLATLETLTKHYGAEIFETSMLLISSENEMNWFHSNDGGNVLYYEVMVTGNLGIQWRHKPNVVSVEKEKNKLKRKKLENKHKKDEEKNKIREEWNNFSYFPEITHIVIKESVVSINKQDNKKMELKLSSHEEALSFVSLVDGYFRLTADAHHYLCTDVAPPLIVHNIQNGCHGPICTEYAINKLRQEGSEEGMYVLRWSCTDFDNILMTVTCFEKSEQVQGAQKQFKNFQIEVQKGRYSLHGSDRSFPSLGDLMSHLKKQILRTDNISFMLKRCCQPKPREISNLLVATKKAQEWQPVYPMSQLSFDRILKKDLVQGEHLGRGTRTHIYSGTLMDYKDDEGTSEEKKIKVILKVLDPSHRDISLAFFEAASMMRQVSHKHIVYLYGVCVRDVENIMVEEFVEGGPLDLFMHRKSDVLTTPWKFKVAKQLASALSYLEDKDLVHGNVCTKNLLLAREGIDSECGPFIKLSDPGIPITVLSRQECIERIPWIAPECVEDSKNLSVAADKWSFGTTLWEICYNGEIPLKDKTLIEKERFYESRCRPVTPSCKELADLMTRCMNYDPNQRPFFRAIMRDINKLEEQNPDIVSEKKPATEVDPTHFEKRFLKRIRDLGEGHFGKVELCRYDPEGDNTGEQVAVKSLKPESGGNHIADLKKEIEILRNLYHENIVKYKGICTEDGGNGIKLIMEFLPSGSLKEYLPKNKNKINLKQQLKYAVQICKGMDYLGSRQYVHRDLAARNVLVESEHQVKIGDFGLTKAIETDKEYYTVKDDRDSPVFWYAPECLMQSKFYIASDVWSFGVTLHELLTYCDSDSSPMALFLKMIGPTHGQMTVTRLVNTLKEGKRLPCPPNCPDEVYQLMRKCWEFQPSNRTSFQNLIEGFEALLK

human JAK3 = human JAK3 (Homo sapiens (Human), UniProt P52333); assay: JAK3 TR-FRET kinase assay; format: biochemical; conditions: JAK3 0.0125 nM
Sequence of human JAK3 (P52333 whole entry, the tested form may be a part): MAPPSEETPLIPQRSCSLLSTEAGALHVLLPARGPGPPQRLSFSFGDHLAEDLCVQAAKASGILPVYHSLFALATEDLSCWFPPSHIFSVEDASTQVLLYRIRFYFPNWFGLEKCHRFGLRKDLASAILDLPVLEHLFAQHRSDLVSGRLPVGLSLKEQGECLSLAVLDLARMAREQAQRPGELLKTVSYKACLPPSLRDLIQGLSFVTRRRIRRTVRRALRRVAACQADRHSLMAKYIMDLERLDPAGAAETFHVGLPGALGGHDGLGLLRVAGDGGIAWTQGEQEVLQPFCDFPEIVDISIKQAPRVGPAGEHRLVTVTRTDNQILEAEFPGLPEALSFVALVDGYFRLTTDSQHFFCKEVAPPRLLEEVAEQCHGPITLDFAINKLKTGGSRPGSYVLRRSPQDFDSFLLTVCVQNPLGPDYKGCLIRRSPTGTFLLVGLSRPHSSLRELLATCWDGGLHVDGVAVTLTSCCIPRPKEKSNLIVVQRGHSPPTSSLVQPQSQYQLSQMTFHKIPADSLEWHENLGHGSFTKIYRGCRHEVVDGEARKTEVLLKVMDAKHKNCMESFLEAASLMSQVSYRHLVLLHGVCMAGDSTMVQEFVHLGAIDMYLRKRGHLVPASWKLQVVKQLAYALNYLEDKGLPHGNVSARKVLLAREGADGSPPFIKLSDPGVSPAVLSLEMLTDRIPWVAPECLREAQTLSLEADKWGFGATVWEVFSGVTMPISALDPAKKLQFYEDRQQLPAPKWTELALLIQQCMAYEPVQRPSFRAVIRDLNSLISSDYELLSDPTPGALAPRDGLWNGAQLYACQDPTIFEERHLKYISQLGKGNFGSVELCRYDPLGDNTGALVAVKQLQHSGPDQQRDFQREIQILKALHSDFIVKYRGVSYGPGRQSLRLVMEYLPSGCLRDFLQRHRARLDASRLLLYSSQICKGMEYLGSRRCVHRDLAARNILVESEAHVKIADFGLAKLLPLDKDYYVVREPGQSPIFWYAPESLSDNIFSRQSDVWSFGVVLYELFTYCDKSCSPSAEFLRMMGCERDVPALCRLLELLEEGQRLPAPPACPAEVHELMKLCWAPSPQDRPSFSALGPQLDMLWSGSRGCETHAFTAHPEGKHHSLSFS

TYK2 JH2 domain = TYK2 JH2 domain (Homo sapiens (Human), UniProt P29597); assay: TYK2 JH2 NanoBRET assay; format: binding; conditions: Table 20, read-out: TYK2 IC50
Sequence of TYK2 JH2 domain (P29597 589-875): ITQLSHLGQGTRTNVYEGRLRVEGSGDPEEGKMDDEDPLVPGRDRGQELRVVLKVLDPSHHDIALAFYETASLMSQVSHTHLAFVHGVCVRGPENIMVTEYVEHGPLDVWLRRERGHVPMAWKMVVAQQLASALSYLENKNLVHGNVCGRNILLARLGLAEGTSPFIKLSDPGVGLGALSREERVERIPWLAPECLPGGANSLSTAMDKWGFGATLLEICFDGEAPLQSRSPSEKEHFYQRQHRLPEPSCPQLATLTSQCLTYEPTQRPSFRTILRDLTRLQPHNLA
Summary of the method: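 Tracer displacement measured by BRET ratio (acceptor over donor) in live HEK293T cells transfected with a NanoLuc-tagged TYK2 JH2 construct; cells co-exposed to test compound and 0.5 µM final K10 tracer for 2 h before substrate/extracellular inhibitor addition.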

Sequence of human JAK2 (O60674 whole entry): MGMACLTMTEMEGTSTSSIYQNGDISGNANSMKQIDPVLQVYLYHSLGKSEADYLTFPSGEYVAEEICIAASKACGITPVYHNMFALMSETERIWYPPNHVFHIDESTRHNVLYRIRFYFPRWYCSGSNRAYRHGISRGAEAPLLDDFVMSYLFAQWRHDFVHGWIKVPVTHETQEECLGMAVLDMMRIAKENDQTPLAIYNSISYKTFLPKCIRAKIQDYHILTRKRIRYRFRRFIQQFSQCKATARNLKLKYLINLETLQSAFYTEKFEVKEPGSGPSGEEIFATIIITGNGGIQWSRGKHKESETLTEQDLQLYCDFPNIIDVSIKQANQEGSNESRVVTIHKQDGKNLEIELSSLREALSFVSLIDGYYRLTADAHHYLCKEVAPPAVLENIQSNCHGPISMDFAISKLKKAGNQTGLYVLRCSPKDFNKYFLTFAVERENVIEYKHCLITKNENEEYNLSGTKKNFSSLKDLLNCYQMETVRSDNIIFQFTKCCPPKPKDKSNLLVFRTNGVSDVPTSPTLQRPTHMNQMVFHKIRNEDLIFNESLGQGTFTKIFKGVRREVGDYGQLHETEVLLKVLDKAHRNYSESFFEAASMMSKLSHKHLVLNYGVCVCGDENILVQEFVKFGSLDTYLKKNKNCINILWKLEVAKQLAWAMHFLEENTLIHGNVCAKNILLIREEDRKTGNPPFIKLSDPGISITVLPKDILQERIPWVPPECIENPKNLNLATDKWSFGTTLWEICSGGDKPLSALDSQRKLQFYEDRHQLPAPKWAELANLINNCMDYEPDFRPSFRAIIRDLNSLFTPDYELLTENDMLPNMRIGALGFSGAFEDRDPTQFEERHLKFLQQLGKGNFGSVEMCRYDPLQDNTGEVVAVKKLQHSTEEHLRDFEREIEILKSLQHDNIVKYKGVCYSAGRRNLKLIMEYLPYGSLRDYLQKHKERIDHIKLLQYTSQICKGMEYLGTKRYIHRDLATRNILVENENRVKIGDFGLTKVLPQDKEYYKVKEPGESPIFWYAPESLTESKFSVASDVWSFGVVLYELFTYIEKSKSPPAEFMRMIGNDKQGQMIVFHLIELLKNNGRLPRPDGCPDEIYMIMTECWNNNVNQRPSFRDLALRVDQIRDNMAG

SMILES	IC50 (human JAK2) [µM]	IC50 (human JAK1) [µM]	IC50 (human JAK3) [µM]	IC50 (TYK2 JH2 domain) [µM]
CCC(=O)c1cnc(Nc2cnc(C3(N)CC3)cn2)cc1Nc1cccc(-c2ncn(C)n2)c1OC [Compound 9YYY]	≥ 0.5	≥ 0.5	≥ 0.5	0.005 to 0.05
CCC(=O)c1cnc(Nc2ccc(CN3CC4(COC4)C3)cn2)cc1Nc1cccc(-c2ncn(C)n2)c1OC [Compound 9YY]	≥ 0.5	≥ 0.5	0.05 to 0.5	< 0.005
CCC(=O)c1cnc(Nc2ccc(CN(C)CC(F)F)cn2)cc1Nc1cccc(-c2ncn(C)n2)c1OC [Compound 9Y]	≥ 0.5	≥ 0.5	≥ 0.5	0.005 to 0.05
CCC(=O)c1cnc(Nc2cnc(C3(NC)CC3)cn2)cc1Nc1cccc(-c2ncn(C)n2)c1OC [Compound 9ZZZ]	≥ 0.5	≥ 0.5	≥ 0.5	0.005 to 0.05
CCC(=O)c1cnc(Nc2ccc(CN3CC4(CCO4)C3)cn2)cc1Nc1cccc(-c2ncn(C)n2)c1OC [Compound 9ZZ]	≥ 0.5	≥ 0.5	≥ 0.5	< 0.005
CCC(=O)c1cnc(Nc2ccc(C(C)NCC(F)(F)F)cn2)cc1Nc1cccc(-c2ncn(C)n2)c1OC (centres unmarked) [Compound 9Z]	0.05 to 0.5	≥ 0.5	≥ 0.5	0.005 to 0.05
CCC(=O)c1cnc(Nc2ccc(OCCN3CCCC3)cn2)cc1Nc1cccc(-c2ncn(C)n2)c1OC [Compound 10A, 1-(4-((2-methoxy-3-(1-methyl-1H-1,2,4-triazol-3-yl)phenyl)amino)-6-((5-(2-(pyrrolidin-1-yl)ethoxy)pyridin-2-yl)amino)pyridin-3-yl)propan-1-one]	≥ 0.5	≥ 0.5	≥ 0.5	< 0.005
CCC(=O)c1cnc(Nc2ccc(CCN(C)C)cn2)cc1Nc1cccc(-c2ncn(C)n2)c1OC [Compound 11A, 1-(6-((5-(2-(dimethylamino)ethyl)pyridin-2-yl)amino)-4-((2-methoxy-3-(1-methyl-1H-1,2,4-triazol-3-yl)phenyl)amino)pyridin-3-yl)propan-1-one]	≥ 0.5	≥ 0.5	≥ 0.5	< 0.005
CCC(=O)c1cnc(Nc2ccc(CCNC)cn2)cc1Nc1cccc(-c2ncn(C)n2)c1OC [Compound 11B]	≥ 0.5	≥ 0.5	≥ 0.5	0.005 to 0.05
CCC(=O)c1cnc(Nc2ccc(CCN3CCCC3)cn2)cc1Nc1cccc(-c2ncn(C)n2)c1OC [Compound 11C]	≥ 0.5	≥ 0.5	≥ 0.5	< 0.005
CCC(=O)c1cnc(Nc2ccc(CCN(C)C)nn2)cc1Nc1cccc(-c2ncn(C)n2)c1OC [Compound 11D]	≥ 0.5	≥ 0.5	≥ 0.5	0.005 to 0.05
CCC(=O)c1cnc(Nc2ccc(CCN3CCCC3)nn2)cc1Nc1cccc(-c2ncn(C)n2)c1OC [Compound 11E]	≥ 0.5	≥ 0.5	≥ 0.5	0.05 to 0.5
CCC(=O)c1cnc(Nc2cc(CCN(C)C)ncn2)cc1Nc1cccc(-c2ncn(C)n2)c1OC [Compound 11F]	≥ 0.5	≥ 0.5	≥ 0.5	< 0.005
CCC(=O)c1cnc(Nc2cc(CCN3CCCC3)ncn2)cc1Nc1cccc(-c2ncn(C)n2)c1OC [Compound 11G]	≥ 0.5	≥ 0.5	0.05 to 0.5	< 0.005
CCC(=O)c1cnc(Nc2cnc(CCNC)cn2)cc1Nc1cccc(-c2ncn(C)n2)c1OC [Compound 11H]	≥ 0.5	≥ 0.5	≥ 0.5	0.05 to 0.5
CCC(=O)c1cnc(Nc2cnc(CCN(C)C)cn2)cc1Nc1cccc(-c2ncn(C)n2)c1OC [Compound 11I]	≥ 0.5	≥ 0.5	≥ 0.5	0.005 to 0.05
CCC(=O)c1cnc(Nc2cnc(CCN3CCCC3)cn2)cc1Nc1cccc(-c2ncn(C)n2)c1OC [Compound 11J]	≥ 0.5	≥ 0.5	≥ 0.5	0.005 to 0.05
CCC(=O)c1cnc(Nc2ccc(CS(C)(=O)=O)cn2)cc1Nc1cccc(-c2ncn(C)n2)c1OC [Compound 13A, 1-(4-((2-methoxy-3-(1-methyl-1H-1,2,4-triazol-3-yl)phenyl)amino)-6-((5-((methylsulfonyl)methyl)pyridin-2-yl)amino)pyridin-3-yl)propan-1-one]	0.05 to 0.5	≥ 0.5	0.05 to 0.5	< 0.005

Further lines, results first:

IC50 (human JAK2) [µM]	IC50 (human JAK1) [µM]	IC50 (human JAK3) [µM]	IC50 (TYK2 JH2 domain) [µM]	SMILES
≥ 0.5	≥ 0.5	≥ 0.5	< 0.005	CCC(=O)c1cnc(Nc2ccc(S(C)(=O)=O)cn2)cc1Nc1cccc(-c2ncn(C)n2)c1OC [Compound 12A, 1-(4-((2-methoxy-3-(1-methyl-1H-1,2,4-triazol-3-yl)phenyl)amino)-6-((5-(methylsulfonyl)pyridin-2-yl)amino)pyridin-3-yl)propan-1-one]
≥ 0.5	≥ 0.5	≥ 0.5	0.005 to 0.05	CCC(=O)c1cnc(Nc2ncc(CS(C)(=O)=O)cc2F)cc1Nc1cccc(-c2ncn(C)n2)c1OC [Compound 13AA]
≥ 0.5	≥ 0.5	≥ 0.5	< 0.005	CCC(=O)c1cnc(Nc2ccc(S(N)(=O)=O)cn2)cc1Nc1cccc(-c2ncn(C)n2)c1OC [Compound 13B]
≥ 0.5	≥ 0.5	≥ 0.5	0.005 to 0.05	CCC(=O)c1cnc(Nc2ccc(S(=O)(=O)NC)cn2)cc1Nc1cccc(-c2ncn(C)n2)c1OC [Compound 13C]
≥ 0.5	≥ 0.5	≥ 0.5	< 0.005	CCC(=O)c1cnc(Nc2ccc(S(=O)(=O)N3CCOCC3)cn2)cc1Nc1cccc(-c2ncn(C)n2)c1OC [Compound 13E]
≥ 0.5	≥ 0.5	≥ 0.5	0.005 to 0.05	CCC(=O)c1cnc(Nc2ccc(CS(C)(=N)=O)cn2)cc1Nc1cccc(-c2ncn(C)n2)c1OC (centres unmarked) [Compound 13F]
≥ 0.5	≥ 0.5	≥ 0.5	< 0.005	CCC(=O)c1cnc(Nc2ccc(S(=O)(=O)CC)cn2)cc1Nc1cccc(-c2ncn(C)n2)c1OC [Compound 13G]
0.05 to 0.5	≥ 0.5	0.05 to 0.5	< 0.005	CCC(=O)c1cnc(Nc2ccc(S(=O)(=O)C3CC3)cn2)cc1Nc1cccc(-c2ncn(C)n2)c1OC [Compound 13H]
≥ 0.5	≥ 0.5	≥ 0.5	< 0.005	CCC(=O)c1cnc(Nc2ccc(S(C)(=O)=O)cn2)cc1Nc1nccc(-c2ncn(C)n2)c1OC [Compound 13I]
≥ 0.5	≥ 0.5	≥ 0.5	< 0.005	CCC(=O)c1cnc(Nc2ccc(S(=O)(=O)CC)cn2)cc1Nc1nccc(-c2ncn(C)n2)c1OC [Compound 13J]
0.05 to 0.5	≥ 0.5	0.05 to 0.5	0.005 to 0.05	CCC(=O)c1cnc(Nc2ccc(S(=O)(=O)C3CC3)cn2)cc1Nc1nccc(-c2ncn(C)n2)c1OC [Compound 13K]
≥ 0.5	≥ 0.5	≥ 0.5	≥ 0.5	CCC(=O)c1cnc(Nc2ccc(S(C)(=N)=O)cn2)cc1Nc1nccc(-c2ncn(C)n2)c1OC (centres unmarked) [Compound 13L]
0.05 to 0.5	≥ 0.5	≥ 0.5	< 0.005	CCC(=O)c1cnc(Nc2ccc(CS(C)(=O)=O)cn2)cc1Nc1nccc(-c2ncn(C)n2)c1OC [Compound 13M]
0.05 to 0.5	≥ 0.5	0.05 to 0.5	0.005 to 0.05	CCC(=O)c1cnc(Nc2cccc(CS(C)(=O)=O)n2)cc1Nc1cccc(-c2ncn(C)n2)c1OC [Compound 13N]
≥ 0.5	≥ 0.5	0.05 to 0.5	0.005 to 0.05	CCC(=O)c1cnc(Nc2ccc(S(C)(=O)=O)cn2)cc1Nc1cccc(CO)c1OC [Compound 13P]
≥ 0.5	≥ 0.5	≥ 0.5	0.005 to 0.05	CCC(=O)c1cnc(Nc2ccc(S(C)(=O)=O)cn2)cc1Nc1cccc(C(C)O)c1OC (centres unmarked) [Compound 13Q]
≥ 0.5	≥ 0.5	≥ 0.5	0.005 to 0.05	CCC(=O)c1cnc(Nc2ccc(S(C)(=O)=O)cn2)cc1Nc1cccc(COC)c1OC [Compound 13R]
≥ 0.5	≥ 0.5	≥ 0.5	0.005 to 0.05	CCC(=O)c1cnc(Nc2ccc(CS(C)(=O)=O)nn2)cc1Nc1cccc(-c2ncn(C)n2)c1OC [Compound 13T]
≥ 0.5	≥ 0.5	≥ 0.5	0.005 to 0.05	CCC(=O)c1cnc(Nc2cnc(CS(C)(=O)=O)cn2)cc1Nc1cccc(-c2ncn(C)n2)c1OC [Compound 13U]
≥ 0.5	≥ 0.5	≥ 0.5	< 0.005	CCC(=O)c1cnc(Nc2ccc(C3(S(C)(=O)=O)CC3)nn2)cc1Nc1cccc(-c2ncn(C)n2)c1OC [Compound 13V]
0.05 to 0.5	≥ 0.5	0.05 to 0.5	0.05 to 0.5	CCC(=O)c1cnc(Nc2ccc(S(C)(=O)=O)cn2)cc1Nc1ccc(C(=O)N2CCCC2)cc1OC [Compound 13W]
0.05 to 0.5	≥ 0.5	0.05 to 0.5	0.05 to 0.5	CCC(=O)c1cnc(Nc2ccc(S(C)(=O)=O)cn2)cc1Nc1ccc(CO)cc1OC [Compound 13X]
≥ 0.5	≥ 0.5	≥ 0.5	0.05 to 0.5	CCC(=O)c1cnc(Nc2ccc(S(C)(=O)=O)cn2)cc1Nc1cccc(C(C)(C)O)c1OC [Compound 13Y]
